Laboratory results as given in patent publication US5210193A, “Piperazine derivatives” (American Cyanamid Company, priority 1990, dated 1993).
Converted amounts (≈) assume the structure as drawn.

Assays:
Assay in all cases: in vitro antibacterial MIC, agar plate dilution
Assay type in all cases: cell-based
[1] = test system: Serratia marcescens F 0-35; conditions: Serratia marcescens, F035, 18 h, 35° C., read-out: MIC
Procedure, shortened: (§1)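 Minimal inhibitory concentrations came from agar plate dilution in Mueller-Hinton medium. Each organism was delivered at roughly 10^4 CFU by Steers replicator. Plates were read for visible growth after 18 hours at 35° C, values in mcg/ml.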

[2] = test system: Proteus rettgeri CMC 84-41; conditions: Providencia rettgeri, CMC8441, 18 h, 35° C., read-out: MIC
Procedure, shortened: as §1

[3] = test system: Escherichia coli CMC 84-11; conditions: Escherichia coli, CMC8411, 18 h, 35° C., read-out: MIC
Procedure, shortened: as §1

[4] = test system: Escherichia coli CMC 84-16; conditions: Escherichia coli, CMC8416, 18 h, 35° C., read-out: MIC
Procedure, shortened: as §1

[5] = test system: Morganella morganii VGH 84-11; conditions: VGH8411, 18 hours, 35° C., read-out: MIC
Procedure, shortened: as §1

[6] = test system: Acinetobacter calcoaceticus MOR 84-43; conditions: MOR8443, 18 hours, 35° C., read-out: MIC
Procedure, shortened: as §1

Escherichia coli NAR 311 = conditions: NAR311, 18 hours, 35° C., read-out: MIC
Procedure, shortened: as §1

[7] = test system: Escherichia coli ATCC 25922; conditions: Escherichia coli, ATCC25922, 18 h, 35° C., read-out: MIC
Procedure, shortened: as §1

[8] = test system: Staphylococcus aureus CMC 83-127; conditions: Staphylococcus aureus, CMC83127, 18 h, 35° C., read-out: MIC
Procedure, shortened: as §1

[9] = test system: Staphylococcus epidermidis VGH 84-40; conditions: VGH8440, 18 hours, 35° C., read-out: MIC
Procedure, shortened: as §1

[10] = test system: Enterobacter cloacae K 84-10; conditions: Enterobacter cloacae, K8410, 18 h, 35° C., read-out: MIC
Procedure, shortened: as §1

[11] = test system: Staphylococcus Spp saprophiticus VGH 84-50; conditions: 18 hours, 35° C., read-out: MIC
Procedure, shortened: as §1

[12] = test system: Streptococcus faecalis ATTC 29212; conditions: Enterococcus faecalis, ATTC29212, 18 hours, 35° C., read-out: MIC
Procedure, shortened: as §1

Klebsiella pneumoniae AD = conditions: Klebsiella pneumoniae, 18 h, 35° C., read-out: MIC
Procedure, shortened: as §1

[13] = test system: Staphylococcus epidermidis CMC 83-135; conditions: CMC83135, 18 hours, 35° C., read-out: MIC
Procedure, shortened: as §1

[14] = test system: Serratia marcescens K 84-18; conditions: Serratia marcescens, K8418, 18 h, 35° C., read-out: MIC
Procedure, shortened: as §1

[15] = test system: Pseudomonas aeruginosa VGH 84-4; conditions: Pseudomonas aeruginosa, VGH844, 18 h, 35° C., read-out: MIC
Procedure, shortened: as §1

[16] = test system: Streptococcus faecalis VGH 84-65; conditions: Enterococcus faecalis, VGH8465, 18 h, 35° C., read-out: MIC
Procedure, shortened: as §1

[17] = test system: Staphylococcus epidermidis IO 83-58; conditions: IO8358, 18 hours, 35° C., read-out: MIC
Procedure, shortened: as §1

[18] = test system: Pseudomonas aeruginosa LL-1244; conditions: Pseudomonas aeruginosa, LL1244, 18 h, 35° C., read-out: MIC
Procedure, shortened: as §1

[19] = test system: Staphylococcus aureus ATTC 29213; conditions: Staphylococcus aureus, ATTC29213, 18 h, 35° C., read-out: MIC
Procedure, shortened: as §1

[20] = test system: Morganella morganii CMC 84-37; conditions: Morganella morganii, CMC8437, 18 h, 35° C., read-out: MIC
Procedure, shortened: as §1

[21] = test system: Escherichia coli PRNT 311; conditions: PRNT311, 18 hours, 35° C., read-out: MIC
Procedure, shortened: as §1

[22] = test system: Staphylococcus aureus VGH 84-46; conditions: Staphylococcus aureus, VGH8446, 18 h, 35° C., read-out: MIC
Procedure, shortened: as §1

[23] = test system: Klebsiella oxytoca MOR 84-28; conditions: MOR8428, 18 hours, 35° C.
Procedure, shortened: as §1

[24] = test system: Enterobacter aerogenes VGH 84-36; conditions: Klebsiella aerogenes, VGH8436, 18 hours, 35° C., read-out: MIC
Procedure, shortened: as §1

[25] = test system: Staphylococcus aureus CMC 83-128; conditions: CMC83128, 18 hours, 35° C., read-out: MIC
Procedure, shortened: as §1

[26] = test system: Staphylococcus aureus Smith; conditions: Staphylococcus aureus, 18 h, 35° C., read-out: MIC
Procedure, shortened: as §1

[27] = test system: Enterobacter cloacae VGH 84-37; conditions: Enterobacter cloacae, VGH8437, 18 h, 35° C., read-out: MIC
Procedure, shortened: as §1

[28] = test system: Staphylococcus aureus VGH 84-45; conditions: Staphylococcus aureus, VGH8445, 18 h, 35° C., read-out: MIC
Procedure, shortened: as §1

[29] = test system: Klebsiella pneumoniae MOR 84-4; conditions: Klebsiella pneumoniae, MOR844, 18 h, 35° C., read-out: MIC
Procedure, shortened: as §1

SMILES	MIC [1] [µg/mL]	MIC [2] [µg/mL]	MIC [3] [µg/mL]	MIC [4] [µg/mL]	MIC [5] [µg/mL]	MIC [6] [µg/mL]	MIC (Escherichia coli NAR 311) [µg/mL]	MIC [7] [µg/mL]	MIC [8] [µg/mL]	MIC [10] [µg/mL]	MIC [11] [µg/mL]	MIC [12] [µg/mL]	MIC (Klebsiella pneumoniae AD) [µg/mL]	MIC [13] [µg/mL]	MIC [14] [µg/mL]	MIC [16] [µg/mL]	MIC [17] [µg/mL]	MIC [18] [µg/mL]	MIC [19] [µg/mL]	MIC [20] [µg/mL]	other results
CCn1cc(C(=O)O)c(=O)c2cc(F)c(N3CCNC(CNC)C3)cc21.Cl.Cl (stereo not drawn) [Example 53, 1-Ethyl-6-fluoro-1,4-dihydro-7-[3-[(methylamino)methyl]-1-piperazinyl]-4-oxo-3-quinolinecarboxylic acid, dihydrochloride]	64	32	8	4	32	> 128	> 128	16	1	8	4	32	64	2	128	32	4	> 128	16	32	MIC [9]: 4 µg/mL; MIC [15]: > 128 µg/mL; MIC [21]: 16 µg/mL; MIC [22]: 8 µg/mL; MIC [23]: > 128 µg/mL; MIC [24]: 16 µg/mL; MIC [25]: 2 µg/mL; MIC [26]: 1 µg/mL; MIC [27]: 32 µg/mL; MIC [28]: 16 µg/mL; MIC [29]: 32 µg/mL
CN1CCN(c2cc3c(cc2F)c(=O)c(C(=O)O)cn3C2CC2)CC1c1ccsc1 (stereo not drawn) [Example 66, 1-Cyclopropyl-6-fluoro-1,4-dihydro-4-oxo-7-[4-methyl-3-(3-thienyl)-1-piperazinyl]-3-quinolinecarboxylic acid]	2 (≈ 4.68 µM)	1 (≈ 2.34 µM)	0.12 (≈ 0.281 µM)	0.06 (≈ 0.14 µM)	1 (≈ 2.34 µM)	8 (≈ 18.7 µM)	0.5 (≈ 1.17 µM)	0.12 (≈ 0.281 µM)	0.03 (≈ 0.0702 µM)	0.12 (≈ 0.281 µM)	0.06 (≈ 0.14 µM)	0.5 (≈ 1.17 µM)	0.25 (≈ 0.585 µM)	0.06 (≈ 0.14 µM)	2 (≈ 4.68 µM)	0.25 (≈ 0.585 µM)	0.06 (≈ 0.14 µM)	16 (≈ 37.4 µM)	0.25 (≈ 0.585 µM)	0.5 (≈ 1.17 µM)	MIC [9]: 0.06 µg/mL (≈ 0.14 µM); MIC [21]: 0.5 µg/mL (≈ 1.17 µM); MIC [22]: 0.06 µg/mL (≈ 0.14 µM); MIC [23]: 0.12 µg/mL (≈ 0.281 µM); MIC [24]: 2 µg/mL (≈ 4.68 µM); MIC [25]: 0.03 µg/mL (≈ 0.0702 µM); MIC [26]: 0.06 µg/mL (≈ 0.14 µM); MIC [27]: 0.25 µg/mL (≈ 0.585 µM); MIC [28]: 0.03 µg/mL (≈ 0.0702 µM); MIC [29]: 0.5 µg/mL (≈ 1.17 µM)
O=C(O)c1cn(-c2ccc(F)cc2)c2cc(N3CCNC(c4ccco4)C3)c(F)cc2c1=O (stereo not drawn) [Example 67, 6-Fluoro-1-(4-fluorophenyl)-7-[3-(2-furanyl)-1-piperazinyl]-1,4-dihydro-4-oxo-3-quinolinecarboxylic acid]	2 (≈ 4.43 µM)	1 (≈ 2.22 µM)	0.12 (≈ 0.266 µM)	0.12 (≈ 0.266 µM)	1 (≈ 2.22 µM)	0.12 (≈ 0.266 µM)	2 (≈ 4.43 µM)	0.12 (≈ 0.266 µM)	0.03 (≈ 0.0665 µM)	0.25 (≈ 0.554 µM)	0.25 (≈ 0.554 µM)	0.5 (≈ 1.11 µM)	0.25 (≈ 0.554 µM)	0.06 (≈ 0.133 µM)	1 (≈ 2.22 µM)	1 (≈ 2.22 µM)	0.06 (≈ 0.133 µM)	4 (≈ 8.86 µM)	0.06 (≈ 0.133 µM)	1 (≈ 2.22 µM)	MIC [9]: 0.06 µg/mL (≈ 0.133 µM); MIC [21]: 0.25 µg/mL (≈ 0.554 µM); MIC [22]: 0.03 µg/mL (≈ 0.0665 µM); MIC [23]: 0.12 µg/mL (≈ 0.266 µM); MIC [24]: 1 µg/mL (≈ 2.22 µM); MIC [25]: 0.06 µg/mL (≈ 0.133 µM); MIC [26]: 0.03 µg/mL (≈ 0.0665 µM); MIC [27]: 0.25 µg/mL (≈ 0.554 µM); MIC [28]: 0.03 µg/mL (≈ 0.0665 µM); MIC [29]: 0.5 µg/mL (≈ 1.11 µM)
CCn1cc(C(=O)O)c(=O)c2c(F)c(F)c(N3CCSCC3)c(F)c21 [Example 89, 1-Ethyl-5,6,8-trifluoro-1,4-dihydro-4-oxo-7-(4-thiomorpholinyl)-3-quinolinecarboxylic acid]	2 (≈ 5.37 µM)	4 (≈ 10.7 µM)	1 (≈ 2.69 µM)	2 (≈ 5.37 µM)	2 (≈ 5.37 µM)	2 (≈ 5.37 µM)	128 (≈ 344 µM)	1 (≈ 2.69 µM)	0.5 (≈ 1.34 µM)	2 (≈ 5.37 µM)	4 (≈ 10.7 µM)	8 (≈ 21.5 µM)	2 (≈ 5.37 µM)	0.5 (≈ 1.34 µM)	2 (≈ 5.37 µM)	32 (≈ 85.9 µM)	0.5 (≈ 1.34 µM)	64 (≈ 172 µM)	0.5 (≈ 1.34 µM)	4 (≈ 10.7 µM)	MIC [15]: 32 µg/mL (≈ 85.9 µM); MIC [21]: 2 µg/mL (≈ 5.37 µM); MIC [23]: 2 µg/mL (≈ 5.37 µM); MIC [24]: 8 µg/mL (≈ 21.5 µM); MIC [25]: 1 µg/mL (≈ 2.69 µM); MIC [26]: 0.25 µg/mL (≈ 0.671 µM); MIC [27]: 4 µg/mL (≈ 10.7 µM); MIC [28]: 0.25 µg/mL (≈ 0.671 µM); MIC [29]: 4 µg/mL (≈ 10.7 µM)
